Laboratory results from patent publication US20250375413A1, “METHOD OF INHIBITING LIPASE ACTIVITY IN AGING” (The Regents of the University of California, priority 2024, published 2025).
Entries after “also recorded” stand apart in the source; their conditions may differ.

How the values were obtained:
pancreatic trypsin = details: old-treated rats (24 months, 14 days oral) compared with young
Experimental: A femoral venous catheter was placed after general anesthesia (pentobarbital sodium, 50 mg/kg [Abbott Laboratories, North Chicago, Il1], intramuscularly after local anesthesia [2% lidocaine HCl; Hospira, Inc, Lake Forrest, Il1]). Tissues (intestine, liver, lung, heart, kidney, brain, mesentery, skin) were immediately collected after euthanasia (Beuthanasia i.v., 120 mg/kg, Schering-Plough Animal Health Corp, Union, NJ), fixed (formalin, 10%, neutral buffered, 1 hr), postfixed (fresh formalin, 24 hrs), and stored (formalin, 10%). The period between initial anesthesia and fixation of the tissues was below 60 minutes. […]
Primary antibodies were diluted to 1-1.5 μl/1000 μl of phosphate-buffered saline. […] No counterstain was applied to facilitate quantitative label intensity measurements. […] For each tissue, the labeling procedures were standardized among the animal groups to permit a quantitative comparison of label densities between ages and treatment with digital image analysis.
Images of the immunolabel density were recorded at multiple magnifications (between 10× objective, numerical aperture 0.25, and 60×, numerical aperture 1.4). They were recorded under standard light conditions with fixed optical and digital camera settings (SPOT Insight® GIGABIT camera, Sterling Height) so that the camera serves as a quantitative light intensity meter without pixel intensity saturation. […]

[1] = system: mucin layer on the epithelium of the small intestine; experiment: Mucin layer density in small intestine (alcian blue); type: in vivo, rat; details: old rats, 14 days oral, upper jejunum
Text: (§1) Small intestine: Full-thickness tissue blocks of the wall of the proximal jejunum (3×5 mm) were fixed from all sides in 10% formalin. Digestive enzymes were detected with primary and secondary antibodies labeled with 3, 3′-diaminobenzidine (DAB, Peroxidase Substrate Kit, ab64238, Abcam®).
The mucin-containing layer on the epithelial cells of the small intestine was stained using alcian blue (pH 2.5, kt 003; Diagnostic BioSystems, Pleasanton, CA) followed by a rinse in distilled water and mounted on a microscope slide (Vector Mount AQ Aqueous Mounting Medium, Vector® Laboratories, Burlington, CA).

[2] = Blood glucose level at tissue collection; type: in vivo, rat; details: old rats, two-week treatment
Text: At the time of tissue collection, fresh femoral arterial blood was used to measure the blood glucose level (Contour®, Bayer® Diabetes Care, Tarrytown, NY) and the percent of glycated hemoglobin levels (AIC Home Test; Bristol-Myers Squibb®; NY, NY).

[3] = system: pancreatic trypsin and amylase; experiment: Digestive enzyme (trypsin, amylase) accumulation in the intestinal wall, whole mount co-labeling; type: in vivo, rat; details: old rats, 14 days oral; villi tips and submucosa
Text: as §1
To co-label the small intestine for mucin and trypsin, the fixed intestine was immersed in the primary antibody against trypsin and stained with DAB substrate. Thereafter the tissue section was embedded in resin and sectioned into thin (1 μm) sections. The mucin label (alcian blue), was applied to the thin section, coverslipped, and imaged.

insulin receptor = experiment: Brain insulin receptor extracellular domain immunolabel density; type: in vivo, rat; details: old rats, two-week treatment
Text: Sections without primary antibodies were used as negative controls.
Insulin receptors' densities on random tissue sections, labeled with an antibody against the extracellular domain, are digitally recorded by placing an optical window on the cell and determining light intensity at a constant incident light Io.

[4] = Effect of oral treatment on digestion / body weight; type: in vivo, rat; details: old rats, temporary oral treatment in drinking water
Text: Male Wistar rats (Harlan Sprague Dawley Inc., Indianapolis, IN) at maturity (4 months, 300 to 350 gm) and at old age (24 months, 375 to 450 gm) were included in the study. The animals were maintained on standard laboratory chow (8604 Teklad rodent diet; Harlan Laboratories, Indianapolis, Ind) without restriction and water ad libitum and maintained in a separate room without pathogen-free conditions.

## tranexamic acid [trypsin inhibitor]
Pancreatic trypsin
  trypsin label density in the brain: almost reached the level in the young (no significant difference)
  trypsin label density in the mesentery: not different from the young
[1]
  mucin layer density on intestinal villi: partially restored; also recorded: restored in part
[2]
  plasma/blood glucose level: mitigated; also recorded: restored in part
[3]
  accumulation of trypsin and amylase in the intestinal wall: attenuated
Insulin receptor
  density of insulin receptor ectodomains in cerebral cortex: in part restored; also recorded: restored in part
[4]
  attenuation of digestion, such as reduction of body weight: did not lead to a detectable attenuation of digestion
